From patent US5126337A, “Thiazetoquinoline-3-carboxylic acid derivative and a pharmaceutical composition comprising the same” (priority 1989, dated 1992)
≈ marks a conversion by molar mass, not a printed value.

Columns and labels:
[1] = tested on: Serratia marcescens HNR 1544; assay: Antibacterial spectrum, MIC by twofold agar dilution method; format: cell-based; details: HNR1544, 10^6 cfu/ml, clinically isolated strain, Gram -, 18 hrs at 37° C
Experimental: (§1) Overnight cultures in Mueller-Hinton broth were suspended by buffered saline gelatin. One loopful of the bacterial suspension (10^6 or 10^8 colony-forming units/ml) was incubated onto the plates containing test compounds. The plates were incubated for 18 hrs at 37° C. The MIC was defined by the lowest concentration of the drug that inhibited visible growth of bacteria.

[2] = tested on: Staphylococcuss aureus HPC 308; assay: as above; format: cell-based; details: 10^6 cfu/ml; clinically isolated strain, Gram +; 18 hrs at 37° C
Experimental: as §1

[3] = tested on: Pseudomonas aeruginosa HNR 1537; assay: as above; format: cell-based; details: HNR1537, 10^6 cfu/ml, clinically isolated strain, Gram -, 18 hrs at 37° C
Experimental: as §1

Enterobacter cloacae 963 = assay: as above; format: cell-based; details: 10^6 cfu/ml, standard laboratory strain, Gram -, 18 hrs at 37° C
Experimental: as §1

[4] = tested on: Pseudomonas aeruginosa HNR 1489; assay: as above; format: cell-based; details: HNR1489, 10^6 cfu/ml, clinically isolated strain, Gram -, 18 hrs at 37° C
Experimental: as §1

[5] = tested on: Enterobacter cloacae HNR 1941; assay: as above; format: cell-based; details: HNR1941, 10^6 cfu/ml, clinically isolated strain, Gram -, 18 hrs at 37° C
Experimental: as §1

[6] = tested on: Pseudomonas aeruginosa IFO 3445; assay: as above; format: cell-based; details: IFO3445, 10^6 cfu/ml, standard laboratory strain, Gram -, 18 hrs at 37° C
Experimental: as §1

[7] = tested on: Acinetobacter calcoaceticus HNR 904; assay: as above; format: cell-based; details: HNR904, 10^6 cfu/ml, clinically isolated strain, Gram -, 18 hrs at 37° C
Experimental: as §1

[8] = tested on: Klebsiella pneumoniae HNR 828; assay: as above; format: cell-based; details: HNR828, 10^6 cfu/ml, clinically isolated strain, Gram -, 18 hrs at 37° C
Experimental: as §1

[9] = tested on: Serratia marcescens IAM 1184; assay: as above; format: cell-based; details: IAM1184, 10^6 cfu/ml, standard laboratory strain, Gram -, 18 hrs at 37° C
Experimental: as §1

[10] = tested on: Klebsiella pneumoniae HNR 858; assay: as above; format: cell-based; details: HNR858, 10^6 cfu/ml, clinically isolated strain, Gram -, 18 hrs at 37° C
Experimental: as §1

[11] = tested on: Acinetobacter calcoaceticus HNR 916; assay: as above; format: cell-based; details: HNR916, 10^6 cfu/ml, clinically isolated strain, Gram -, 18 hrs at 37° C
Experimental: as §1

[12] = tested on: Klebsiella pneumoniae HNR 869; assay: as above; format: cell-based; details: HNR869, 10^6 cfu/ml, clinically isolated strain, Gram -, 18 hrs at 37° C
Experimental: as §1

[13] = tested on: Enterococcus faecalis HPC 948; assay: as above; format: cell-based; details: HPC948, 10^6 cfu/ml, clinically isolated strain, Gram +, 18 hrs at 37° C
Experimental: as §1

[14] = tested on: Serratia marcescens HNR 1767; assay: as above; format: cell-based; details: HNR1767, 10^6 cfu/ml, clinically isolated strain, Gram -, 18 hrs at 37° C
Experimental: as §1

[15] = tested on: Pseudomonas aeruginosa HNR 1472; assay: as above; format: cell-based; details: HNR1472, 10^6 cfu/ml, clinically isolated strain, Gram -, 18 hrs at 37° C
Experimental: as §1

[16] = tested on: Staphylococuss aureus FDA 209PJC-1; assay: as above; format: cell-based; details: 10^6 cfu/ml; standard laboratory strain, Gram +; 18 hrs at 37° C
Experimental: as §1

[17] = tested on: Serratia marcescens HNR 1792; assay: as above; format: cell-based; details: HNR1792, 10^6 cfu/ml, clinically isolated strain, Gram -, 18 hrs at 37° C
Experimental: as §1

[18] = tested on: Acinetobacter calcoaceticus HNR 939; assay: as above; format: cell-based; details: HNR939, 10^6 cfu/ml, clinically isolated strain, Gram -, 18 hrs at 37° C
Experimental: as §1

[19] = tested on: Enterobacter cloacae HNR 1946; assay: as above; format: cell-based; details: HNR1946, 10^6 cfu/ml, clinically isolated strain, Gram -, 18 hrs at 37° C
Experimental: as §1

[20] = tested on: Staphylococcuss aureus HPC 527; assay: as above; format: cell-based; details: 10^6 cfu/ml; clinically isolated strain, Gram +; 18 hrs at 37° C
Experimental: as §1

[21] = tested on: Staphylococcuss aureus HPC 292; assay: as above; format: cell-based; details: 10^6 cfu/ml; clinically isolated strain, Gram +; 18 hrs at 37° C; read-out: MIC
Experimental: as §1

[22] = tested on: Enterobacter cloacae HNR 1939; assay: as above; format: cell-based; details: HNR1939, 10^6 cfu/ml, clinically isolated strain, Gram -, 18 hrs at 37° C
Experimental: as §1

[23] = tested on: Escherichia coli NIHJ JC-2; assay: as above; format: cell-based; details: NIHJJC2, 10^6 cfu/ml, standard laboratory strain, Gram -, 18 hrs at 37° C
Experimental: as §1

[24] = tested on: Enterococcus faecalis HPC 975; assay: as above; format: cell-based; details: HPC975, 10^6 cfu/ml, clinically isolated strain, Gram +, 18 hrs at 37° C
Experimental: as §1

[25] = tested on: Enterococcus faecalis HPC 984; assay: as above; format: cell-based; details: HPC984, 10^6 cfu/ml, clinically isolated strain, Gram +, 18 hrs at 37° C
Experimental: as §1

[26] = tested on: Klebsiella pneumoniae PCI-602; assay: as above; format: cell-based; details: PCI602, 10^6 cfu/ml, standard laboratory strain, Gram -, 18 hrs at 37° C, read-out: MIC
Experimental: Minimum inhibitory concentrations (MIC) of test compounds were determined by the twofold agar dilution method (Chemotherapy, 29(1), 76(1981)). Overnight cultures in Mueller-Hinton broth were suspended by buffered saline gelatin. One loopful of the bacterial suspension (10^6 or 10^8 colony-forming units/ml) was incubated onto the plates containing test compounds. The plates were incubated for 18 hrs at 37° C. The MIC was defined by the lowest concentration of the drug that inhibited visible growth of bacteria.

Male mice of ddY strain = assay: Convulsion inducing activity in combination with fenbufen; details: 30 min after fenbufen 100 mg/kg orally
Experimental: Male mice of ddY strain, 5 weeks old, were used. Fenbufen suspended in 0.5% carboxymethyl cellulose was administered orally at a dose of 100 mg/kg. After thirty minutes, test compounds suspended in 0.5% carboxymethyl cellulose were injected intraperitoneally (i.p.) at a dose of 100 mg/kg or 300 mg/kg.

Row | Structure (SMILES) | MIC [1] [µg/mL] | MIC [3] [µg/mL] | MIC (Enterobacter cloacae 963) [µg/mL] | MIC [4] [µg/mL] | MIC [5] [µg/mL] | MIC [6] [µg/mL] | MIC [7] [µg/mL] | MIC [8] [µg/mL] | MIC [9] [µg/mL] | MIC [10] [µg/mL] | MIC [11] [µg/mL] | MIC [12] [µg/mL] | MIC [13] [µg/mL] | MIC [14] [µg/mL] | MIC [16] [µg/mL] | MIC [17] [µg/mL] | MIC [18] [µg/mL] | MIC [19] [µg/mL] | MIC [20] [µg/mL] | MIC [21] [µg/mL] | further results
1 | CC1Sc2c(C(=O)O)c(=O)c3cc(F)c(N4CCC(N(C)C)C4)c(Cl)c3n21 (centres unmarked) [Example 39, 8-Chloro-7-(3-dimethylamino-1-pyrrolidinyl)-6-fluoro-1-methyl-4-oxo-1H, 4H-[1,3]thiazeto[3,2-a]quinoline-3-carboxylic acid] | 0.2 (≈ 0.486 µM) | 50 (≈ 121 µM) | 0.39 (≈ 0.947 µM) | 1.56 (≈ 3.79 µM) | 12.5 (≈ 30.3 µM) | 1.56 (≈ 3.79 µM) | 6.25 (≈ 15.2 µM) | 12.5 (≈ 30.3 µM) | 0.39 (≈ 0.947 µM) | 0.78 (≈ 1.89 µM) | 0.1 (≈ 0.243 µM) | 3.13 (≈ 7.6 µM) | 1.56 (≈ 3.79 µM) | 12.5 (≈ 30.3 µM) | 0.2 (≈ 0.486 µM) | 12.5 (≈ 30.3 µM) | 1.56 (≈ 3.79 µM) | 0.78 (≈ 1.89 µM) | 0.2 (≈ 0.486 µM) | 12.5 (≈ 30.3 µM) | MIC [2]: 1.56 µg/mL (≈ 3.79 µM); MIC [15]: 25 µg/mL (≈ 60.7 µM); MIC [22]: 0.78 µg/mL (≈ 1.89 µM); MIC [23]: 0.1 µg/mL (≈ 0.243 µM); MIC [24]: 12.5 µg/mL (≈ 30.3 µM); MIC [25]: 0.39 µg/mL (≈ 0.947 µM); MIC [26]: 0.025 µg/mL (≈ 0.0607 µM)
2 | CC1Sc2c(C(=O)O)c(=O)c3cc(F)c(N4CC[C@H](N(C)C)C4)c(Cl)c3n21 (stereo partly drawn) [Example 35, 8-Chloro-7-((S)-3-dimethylamino-1-pyrrolidinyl)-6-fluoro-1-methyl-4-oxo-1H,4H-[1,3]thiazeto[3,2-a]quinoline-3-carboxylic acid] | 0.1 (≈ 0.243 µM) | 25 (≈ 60.7 µM) | 0.1 (≈ 0.243 µM) | 0.78 (≈ 1.89 µM) | 6.25 (≈ 15.2 µM) | 0.78 (≈ 1.89 µM) | 3.13 (≈ 7.6 µM) | 6.25 (≈ 15.2 µM) | 0.2 (≈ 0.486 µM) | 0.39 (≈ 0.947 µM) | 0.1 (≈ 0.243 µM) | 1.56 (≈ 3.79 µM) | 1.56 (≈ 3.79 µM) | 12.5 (≈ 30.3 µM) | 0.1 (≈ 0.243 µM) | 3.13 (≈ 7.6 µM) | 1.56 (≈ 3.79 µM) | 0.39 (≈ 0.947 µM) | 0.1 (≈ 0.243 µM) | 12.5 (≈ 30.3 µM) | MIC [2]: 0.78 µg/mL (≈ 1.89 µM); MIC [15]: 12.5 µg/mL (≈ 30.3 µM); MIC [22]: 0.39 µg/mL (≈ 0.947 µM); MIC [23]: 0.1 µg/mL (≈ 0.243 µM); MIC [24]: 12.5 µg/mL (≈ 30.3 µM); MIC [25]: 0.39 µg/mL (≈ 0.947 µM); MIC [26]: 0.05 µg/mL (≈ 0.121 µM)
3 | CC1Sc2c(C(=O)O)c(=O)c3cc(F)c(N4CCC(N)C4)c(F)c3n21 (centres unmarked) [Example 33, 7-(3-amino-1-pyrrolidinyl)-6,8-difluoro-1-methyl-4-oxo-1H,4H-[1,3] thiazeto[3,2-a]quinoline-3-carboxylic acid] | 0.05 (≈ 0.136 µM) | 12.5 (≈ 34 µM) | 0.05 (≈ 0.136 µM) | 0.2 (≈ 0.544 µM) | 3.13 (≈ 8.52 µM) | 0.1 (≈ 0.272 µM) | 25 (≈ 68 µM) | 3.13 (≈ 8.52 µM) | 0.1 (≈ 0.272 µM) | 0.2 (≈ 0.544 µM) | 0.2 (≈ 0.544 µM) | 0.78 (≈ 2.12 µM) | 0.78 (≈ 2.12 µM) | 12.5 (≈ 34 µM) | 0.025 (≈ 0.068 µM) | 1.56 (≈ 4.25 µM) | 1.56 (≈ 4.25 µM) | 0.2 (≈ 0.544 µM) | 0.05 (≈ 0.136 µM) | 6.25 (≈ 17 µM) | MIC [22]: 0.2 µg/mL (≈ 0.544 µM); MIC [23]: 0.025 µg/mL (≈ 0.068 µM); MIC [24]: 6.25 µg/mL (≈ 17 µM); MIC [25]: 0.2 µg/mL (≈ 0.544 µM); Number of convulsion induced/Number of animals (Male mice of ddY strain; 100 mg/kg (i.p.)): 0/6; Number of convulsion induced/Number of animals (Male mice of ddY strain; 300 mg/kg (i.p.)): 0/6
